The source of these data is the SangsterLogP compilation.

The data set in a line: method code SF-AS, from DOI: 10.1002/ardp.19903230114, PMID: 2334269. The conditions noted are these: pH 7.4.

One may read the logD as the decadic logarithm of the distribution of all forms, ionised or not, between an organic phase and buffer at a given pH. A lower logD goes with a more hydrophilic compound. `OC1(c2ccccc2)CN2CCCCC2CO1` (configuration not stated): the log distribution coefficient (logD) was 1.77.
Then `CCCOC1(c2ccccc2)CN(C)C2CCCCC2O1` (configuration not stated), with 1.91; and `CCCCN1CCOC(OCCC)(c2ccccc2)C1` (configuration not stated), with 2.03; and `CCCOC1(c2ccccc2)CN2CCCCC2CO1` (configuration not stated), with 1.92.
As to `CCCCOC1(c2ccccc2)CN2CCCCC2CO1` (configuration not stated), the log distribution coefficient (logD) is 1.94.
With `CCOC1(c2ccccc2)CN2CCCCC2CO1` (configuration not stated) the figure was 1.87; with `CCCCOC1(c2ccccc2)CN(CCCC)CCO1` (configuration not stated), 2.13.
Then `CC(C)COC1(c2ccccc2)CN2CCCCC2CO1` (configuration not stated), with 1.95; and `CCCCN1CCOC(OCC)(c2ccccc2)C1` (configuration not stated), with 2; and `CN1CC(O)(c2ccccc2)OC2CCCCC21` (configuration not stated), with 1.81.
Then `CCCCCOC1(c2ccccc2)CN(C)C2CCCCC2O1` (configuration not stated), with 2.05; and `c1ccc(COC2(c3ccccc3)CN3CCCCC3CO2)cc1` (configuration not stated), with 1.95.
